This note sets out measurements from ChEMBL document CHEMBL6153074, “Discovery of novel dual tubulin and MMPs inhibitors for the treatment of lung cancer and overcoming drug resistance” (Eur J Med Chem, 2025).

Each structure is given as a SMILES string. The source made the active and inactive calls. The calls are words filed in the database; no cut-off is given here.

For orientation: IC50 means the concentration at which inhibition is half-maximal. A higher IC50 goes with a need for much substance.

Data set [1] can be described thus: Selectivity index, ratio of IC50 for antiproliferative activity against human MCF-10A cells to IC50 for antiproliferative activity against human MCF7 cells. The conditions noted are these: MCF-10A cells and MCF7 cells, read-out: Ratio IC50. It counts as toxicity, cell-based.
The subject of data set [2] is A549. As to the kind of experiment: Induction of apoptosis in human A549 cells assessed as necrotic cells at 0.5 uM incubated for 24 hrs by Annexin V-FITC/PI staining based flow cytometry (reference value: 0.13 %). It counts as functional.
The test system of data set [3] is MDA-MB-231. As to the kind of experiment: Antiproliferative activity against human MDA-MB-231 cells by CCK8 assay. (In general: Formazan colour is commonly taken as a measure of viable cells.)
The test system of data set [4] is A549. The data set can be described thus: Anti-migration activity in human A549 cells assessed as migration rate at 0.5 uM incubated for 24 hrs by wound healing assay (reference value: 73.94 %). It counts as functional.
Data set [5] addresses T1, Tubulin (Homo sapiens) (UniProt P68371+Q9H4B7+P0DPH7+P68366+Q13509+Q71U36+P04350+Q3ZCM7+P07437+P68363+Q9BQE3+Q6PEY2+Q13885+Q9BVA1+Q9BUF5). The data set can be described thus: Disruption of microtubule network in human A549 cells assessed as cell disorganisation at 5 uM incubated for 24 hrs by immunofluorescence based analysis.
Data set [6] relates to A549. The data set can be described thus: Induction of mitochondrial membrane potential loss in human A549 cells at 0.5 uM incubated for 24 hrs by JC-1 dye based analysis (reference value: 3.14 %). It counts as functional.
The test system of data set [7] is A549. The data set can be described thus: Induction of apoptosis in human A549 cells assessed as viable cells at 0.5 uM incubated for 24 hrs by Annexin V-FITC/PI staining based flow cytometry (reference value: 95.82 %). Format: functional. The conditions noted are these: read-out: Activity. On the technique in general: A flow cytometer gives signals particle by particle.

Data set [8] in a line: Antiproliferative activity against human L02 cells by CCK8 assay. It counts as toxicity, cell-based.
Data set [9] concerns NCI-H460. The data set can be described thus: Antiproliferative activity against human NCI-H460 cells by CCK8 assay.
Data set [10] can be described thus: Selectivity index, ratio of IC50 for antiproliferative activity against human L02 cells to IC50 for antiproliferative activity against human A549 cells. Format: toxicity, cell-based. The conditions noted are these: L02 cells and A549 cells, read-out: Ratio IC50.
Data set [11] deals with A549. The data set can be described thus: Antitumor activity against human A549 cells xenografted in BALB/c mouse at 20 mg/kg, ip for 3 weeks administered on every 2 days relative to control. Format: functional. The conditions noted are these: A549, 504 h, read-out: TGI. A general note: A xenograft is tissue or cells of one species grown in another, often human tumour cells in immunodeficient mice.

For data set [12], the system named is A549. The data set can be described thus: Induction of intracellular ROS accumulation in human A549 cells at 0.5 uM incubated for 24 hrs by DCFH-DA dye based flow cytometry (reference value: 4.96 %). Format: functional.
Data set [13] relates to A549. The data set can be described thus: Induction of cell cycle arrest in human A549 cells assessed as accumulation at G2 phase at 0.5 uM incubated for 24 hrs by PI staining based flow cytometry (reference value: 3.37 %). Format: functional.
The subject of data set [14] is A549. The data set can be described thus: Induction of apoptosis in human A549 cells assessed as late apoptotic cells at 0.5 uM incubated for 24 hrs by Annexin V-FITC/PI staining based flow cytometry (reference value: 1.01 %). Format: functional.
Data set [15] concerns A549. The data set can be described thus: cells. The conditions noted are these: Homo sapiens.
Description: Antiproliferative activity against human A549 cells by CCK8 assay
Data set [16] has as its system A549. As to the kind of experiment: Induction of cell cycle arrest in human A549 cells assessed as accumulation at S phase at 0.5 uM incubated for 24 hrs by PI staining based flow cytometry (reference value: 37.95 %). It counts as functional.
Data set [17] concerns A549. The data set can be described thus: Induction of cell cycle arrest in human A549 cells assessed as accumulation at G1 phase at 0.5 uM incubated for 24 hrs by PI staining based flow cytometry (reference value: 58.67 %). It counts as functional.
The nature of data set [18]: Antiproliferative activity against human MCF-10A cells by CCK8 assay. Format: toxicity, cell-based.
In data set [19] the target is T1, Tubulin (Homo sapiens). As to the kind of experiment: Disruption of microtubule network in human A549 cells assessed as contraction towards cell border at 5 uM incubated for 24 hrs by immunofluorescence based analysis.
Data set [20] has as its system MCF7. The data set can be described thus: Antiproliferative activity against human MCF7 cells by CCK8 assay.
The subject of data set [21] is A549. As to the kind of experiment: Induction of apoptosis in human A549 cells assessed as early apoptotic cells at 0.5 uM incubated for 24 hrs by Annexin V-FITC/PI staining based flow cytometry (reference value: 3.04 %). It counts as functional.
Data set [22] addresses Matrix metalloproteinase-9 (Homo sapiens, UniProt P14780). As to the kind of experiment: Inhibition of MMP-9 (unknown origin) using fluorogenic-McaPro-Leu-Gly-Leu-Dpa-Ala-Arg-NH2 as substrate.
Data set [23] deals with 72 kDa type IV collagenase (Homo sapiens, UniProt P08253). As to the kind of experiment: Inhibition of MMP-2 (unknown origin) using fluorogenic-McaPro-Leu-Gly-Leu-Dpa-Ala-Arg-NH2 as substrate.
Chain of 72 kDa type IV collagenase (P08253 whole entry): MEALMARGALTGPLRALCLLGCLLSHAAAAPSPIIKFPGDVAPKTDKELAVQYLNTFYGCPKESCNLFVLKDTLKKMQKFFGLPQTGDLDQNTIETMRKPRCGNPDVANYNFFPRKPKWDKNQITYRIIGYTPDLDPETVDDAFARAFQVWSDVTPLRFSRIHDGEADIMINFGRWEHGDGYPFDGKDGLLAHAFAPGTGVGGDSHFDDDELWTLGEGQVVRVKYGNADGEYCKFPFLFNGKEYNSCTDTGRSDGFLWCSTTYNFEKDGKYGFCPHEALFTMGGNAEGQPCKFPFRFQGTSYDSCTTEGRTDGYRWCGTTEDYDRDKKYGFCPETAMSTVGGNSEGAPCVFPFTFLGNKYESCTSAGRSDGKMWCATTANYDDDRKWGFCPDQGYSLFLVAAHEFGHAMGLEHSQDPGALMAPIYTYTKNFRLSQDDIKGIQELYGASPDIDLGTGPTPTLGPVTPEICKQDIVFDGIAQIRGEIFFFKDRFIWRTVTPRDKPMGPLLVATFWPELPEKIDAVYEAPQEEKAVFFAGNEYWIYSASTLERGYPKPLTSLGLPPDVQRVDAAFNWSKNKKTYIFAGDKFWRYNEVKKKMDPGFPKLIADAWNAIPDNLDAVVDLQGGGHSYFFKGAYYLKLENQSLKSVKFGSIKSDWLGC
The target in data set [24] is Stromelysin-1 (Homo sapiens, UniProt P08254). As to the kind of experiment: Inhibition of MMP-3 (unknown origin) using fluorogenic-McaPro-Leu-Gly-Leu-Dpa-Ala-Arg-NH2 as substrate.
Chain of Stromelysin-1 (P08254 whole entry): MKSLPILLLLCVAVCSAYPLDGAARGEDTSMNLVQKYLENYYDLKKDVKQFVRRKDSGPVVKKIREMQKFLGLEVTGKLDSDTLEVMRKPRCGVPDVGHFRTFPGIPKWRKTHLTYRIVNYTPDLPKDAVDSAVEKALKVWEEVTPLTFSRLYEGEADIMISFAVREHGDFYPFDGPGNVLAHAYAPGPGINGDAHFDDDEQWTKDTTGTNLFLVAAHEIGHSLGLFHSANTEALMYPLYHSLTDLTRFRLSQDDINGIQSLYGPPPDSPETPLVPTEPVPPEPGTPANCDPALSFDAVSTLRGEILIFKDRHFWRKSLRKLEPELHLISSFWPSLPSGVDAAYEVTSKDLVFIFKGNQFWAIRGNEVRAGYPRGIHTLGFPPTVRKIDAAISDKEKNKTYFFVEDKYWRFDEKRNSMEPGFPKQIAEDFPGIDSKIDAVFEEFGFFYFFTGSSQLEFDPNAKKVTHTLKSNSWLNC

Chain of Matrix metalloproteinase-9 (P14780 whole entry): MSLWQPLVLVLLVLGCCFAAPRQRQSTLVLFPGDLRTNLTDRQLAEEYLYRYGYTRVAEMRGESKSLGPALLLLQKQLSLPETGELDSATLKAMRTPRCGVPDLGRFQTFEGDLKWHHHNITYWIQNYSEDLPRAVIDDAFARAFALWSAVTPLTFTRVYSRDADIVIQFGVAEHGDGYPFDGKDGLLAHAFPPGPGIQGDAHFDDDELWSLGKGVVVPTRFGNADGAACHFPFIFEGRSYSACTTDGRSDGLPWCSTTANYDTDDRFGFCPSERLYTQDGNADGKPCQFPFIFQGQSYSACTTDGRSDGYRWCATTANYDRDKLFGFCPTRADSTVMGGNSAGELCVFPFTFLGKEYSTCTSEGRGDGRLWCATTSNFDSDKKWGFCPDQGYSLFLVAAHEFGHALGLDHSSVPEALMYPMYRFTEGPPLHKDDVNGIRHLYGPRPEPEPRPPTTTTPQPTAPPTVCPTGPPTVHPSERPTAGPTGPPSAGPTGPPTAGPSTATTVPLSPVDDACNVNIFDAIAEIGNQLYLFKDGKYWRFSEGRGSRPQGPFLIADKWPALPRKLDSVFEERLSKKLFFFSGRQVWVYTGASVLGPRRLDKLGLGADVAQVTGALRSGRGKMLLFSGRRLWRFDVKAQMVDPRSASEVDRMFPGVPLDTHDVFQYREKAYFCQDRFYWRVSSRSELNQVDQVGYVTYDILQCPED

As to `COc1ccc(/C=C/C(=O)c2cc(OC)c(OC)c(OC)c2)cc1O`, the selectivity ratio in [1] is 1.34; in [10] it was 2.4. In addition, the Activity in data set [2] is recorded as 0.84%; in [4], 45.16%; in data set [6], 40.88%; in data set [12], 54.64%; in [13], 69.1%; in data set [14], 5.23%. Further, the Activity in data set [16] is reported as 14.34%; in [17] it was 16.56%; in data set [21], 24.49%. Moreover, the IC50 in data set [3] is 0.808 µM; in [8], 1.09 µM; in [9], 0.538 µM; in data set [15], 0.456 µM; in data set [18] it was 0.967 µM; in data set [20], 0.722 µM. The result in data set [5] and in data set [19] was Active. Further, the viability at 0.5 µM in data set [7] amounted to 69.5%. Moreover, the inhibition in vivo at 20 mg/kg in data set [11] amounted to 64.7%.
Turning to `Cc1ccc2nc(-c3cccc(NC(=O)CCc4ccccc4)c3)[nH]c2c1`, the IC50 in data set [22] stood at 28.4 µM; in [23], 36.4 µM; in data set [24] it was 46.3 µM.
